Source: patent publication US20250352555A1, “METHOD OF INCREASING IMMUNE CELL ACTIVATION AND/OR TREATING CANCER USING DIBENZOXAZEPINONES” (VASCULAR THERAPEUTICS PTY LTD, priority 2022, published 2025)

Experiments:
JUN [1] = assay: Western blotting for JUN, MDA-MB-435 cells; format: cell-based, human; conditions: MDA-MB-435 cells (BRAF^V600E), 24 h, dose-dependent
Protocol: (§1) Western blotting. Cells were treated with compounds and times indicated and total cell lysates were prepared in RIPA buffer. Lysates (10 μg) were resolved by SDS-PAGE and transferred to Immobilon-P polyvinylidene difluoride (PVDF) membranes (Millipore, USA).
(§2) Membranes were blocked with 5% skim milk and incubated with rabbit monoclonal anti-c-Jun (Abcam, cat. no. ab32137; mouse, rat and human reactive) antibody, rabbit monoclonal anti-PD-1 (Abcam, cat. no. ab214421) antibody, mouse monoclonal β-actin antibody (Sigma-Aldrich, cat. no. A5316), anti-phospho-SAPK/JNK (Thr^183/Tyr^185) (98F2) (CST, cat. no. 4671) antibody, anti-phospho-p44/42 MAPK (ERK1/2) (Thr^202/Tyr^204) (D13.14.4E) (CST, cat. no. 4370) antibody, anti-phospho-p38 MAPK (Thr^180/Tyr^182) (D3F9) (CST, cat. no. 4511) antibody, anti-SAPK/JNK antibody (CST, cat. no. 9252), anti-p44/42 MAPK (ERK1/2) (137F5) antibody (CST, cat. no. 4695), anti-p38 MAPK antibody (CST, cat. no. 9212), anti-DUSP8 antibody (Abcam, cat. no. ab198175) or anti-c-MAF (BLR045F) antibody (Abcam, cat. no. ab243901). […] Chemiluminescence was detected using the Western Lightning Chemiluminescence system (Thermo Scientific, USA) and ImageQuant™ LAS 4000 biomolecular imager (GE Healthcare Life Sciences, USA). Band intensity in images generated with the LAS 4000 was quantified using NIH Image J. […]

A375 cells = assay: Invasion assay (Matrigel), A375; format: cell-based, human; conditions: 1 μM, 24 h, with greater potency than SCH772984
Protocol: Invasion assays. Cells were grown in medium containing 10% FBS in 24-well plates. The following day the cells were scratched with a sterile toothpick, washed with PBS, and overlayed with 90% Matrigel (cat. no. 354230, Corning) (200 μl/well) containing vehicle, BT2 or SCH772984 at 1 μM. The cells were immediately photographed under a 10× objective using an Olympus CKX41 microscope, incubated at 37° C. for 1 h, and medium (800 μl/well) containing 10% FBS with vehicle, BT2 or SCH772984 at 1 μM was added. After 24 or 48 h, the cells were again photographed under a 10× objective using the same microscope. To assess the effect of BT2 on melanoma cell migration, A375 and MeWo cells were incubated with 1 μM of BT2 or SCH772984, and A375 and MeWo migration into the denuded zone was quantified after 24 or 48 h, respectively.

DUSP8 = assay: Western blotting for DUSP8, Jurkat T cells; format: cell-based, human; conditions: 24 h
Protocol: as §1, §2

JUN [2] = assay: Western blotting for JUN, MeWo cells; format: cell-based, human; conditions: MeWo cells (BRAF WT), 24 h, dose-dependent
Protocol: as §1, §2

p-ERK = assay: Immunohistochemistry of MDA-MB-435 tumors, p-ERK; format: in vivo, mouse; conditions: SCID mice, 20 mg/kg i.t.
Description: Immunohistochemical staining and analyses. Rabbit monoclonal anti-CD3 (cat. no. ab16669; mouse, rat and human reactive), rabbit monoclonal anti-PD-1 (cat. no. ab214421), rabbit monoclonal anti-CD68 (cat. no. ab125212) antibodies were obtained from Abcam, rabbit monoclonal anti-phospho-ERK (Thr^202/Tyr^204) (cat. no. CST4370), rabbit monoclonal total ERK (cat. no. CST4695), antibodies were obtained from Cell Signaling Technology. Rabbit polyclonal anti-PD-L1 (cat. no. PA5-20343) antibody was obtained from ThermoFisher.
Formalin fixed, paraffin embedded sections were prepared from tumors. Heat-induced epitope retrieval was applied to all deparaffinized sections (4 μm sections on Superfrost slides) with citrate buffer, pH 6.0 for 5 min at 110° C. Sections were blocked with Dual Endogenous Enzyme Block (DAKO, S2003) for 10 min and then with 2% skim milk for 20 min. Slides were incubated with primary antibody for 60 min at room temperature or overnight at 4° C. and then for 10 min with probe of MACH3 Rabbit AP-Polymer Detection solution (Biocare Medical, M3R533 G, H, L). […] Integrated optical density (IOD) or area of positive staining (red chromagen) was assessed using Image-Pro Plus software (Cybernetics, Bethesda, MD, USA). Positive staining was the average of quantitation in 4-8 fields of view under 20× or 40× objectives.

JUN [3] = assay: Western blotting time course for JUN, Jurkat T cells; format: cell-based, human; conditions: Western blot time course
Protocol: as §1, §2

p38 = assay: Western blotting time course for p38 phosphorylation, Jurkat T cells; format: cell-based, human; conditions: Western blot time course
Protocol: as §1, §2

In the case of `CCOC(=O)Nc1ccc2c(c1)C(=O)N(CC)c1ccccc1O2` [BT2, (10-ethyl-11-oxo-10,11-dihydro-dibenzo[b,f][1,4]oxazepin-2-yl)-carbamic acid ethyl ester], the “JUN expression (Western blot)” value (JUN [1]) is reported as “increased”, the “invasion into the denuded zone of Matrigel” value (A375 cells) is reported as “suppressed” and the “DUSP8 protein levels (Western blot)” value (DUSP8) is reported as “elevated”. The “JUN expression (Western blot)” value (JUN [2]) was “increased”, the “ERK phosphorylation in the tumors (IHC)” value (p-ERK) was “suppression of ERK phosphorylation” and the “time to induction of JUN at the protein level” value (JUN [3]) was 2 to 4 h. For the same compound, the “levels of p38 phosphorylation” value (p38) was “no effect”.
